Test results taken from the NIST ThermoML archive (doi:10.1016/j.jct.2015.11.016).
Numbers after ± are expanded uncertainties. One block for each compound: values may come before it.

Tests used:
[1] = 298.15 K; 101.33 kPa; Liquid; Vibrating tube method
[2] = xn = mol fraction of the nth substance listed; conditions: 298.15 K, 100 kPa, Liquid, Vibrating tube method

SMILES: CCCC[N+]1(C)CCCC1.N#CN=C=[N-] [1-butyl-1-methylpyrrolidinium dicyanamide]
mass density [1]: 1014.47 ± 6 kg/m3

SMILES: CCCC[N+]1(C)CCCC1.N#CN=C=[N-] [1-butyl-1-methylpyrrolidinium dicyanamide] + CCCCCCCC
mass density ([2]; x2 = 0.01): 1012.4 ± 6.1 kg/m3

SMILES: CCCC[N+]1(C)CCCC1.N#CN=C=[N-] [1-butyl-1-methylpyrrolidinium dicyanamide] + c1ccccc1
mass density ([2]; x2 = 0.706): 964.75 ± 6.2 kg/m3

SMILES: c1ccccc1 [benzene]
mass density [1]: 873.71 ± 2 kg/m3

The remaining lines, values ahead:

mass density [1]: 726.15 ± 2 kg/m3
SMILES: CCCCCCCCCC [decane]

mass density [1]: 698.86 ± 2 kg/m3
SMILES: CCCCCCCC [octane]
